Measurements reported in ChEMBL document CHEMBL5038626 (Eur J Med Chem, 2022).
Converted amounts (≈) assume the structure as drawn. The source made the active and inactive calls. No cut-off for these calls is given here.

What was measured:
Staphylococcus aureus = test: Antibacterial activity against Staphylococcus aureus Newman assessed as inhibition of bacterial growth incubated for 24 hrs by broth microdilution method; type: functional
Escherichia coli = test: Antibacterial activity against Escherichia coli ATCC 8739 assessed as inhibition of bacterial growth incubated for 24 hrs by broth microdilution method; type: functional
DNA gyrase = DNA gyrase (Escherichia coli, UniProt P0AES4+P0AES6); test: Inhibition of Escherichia coli DNA gyrase supercoiling activity using pBR322 as substrate incubated for 30 mins by fluorimetric assay; type: protein-complex assay
Topoisomerase IV = Topoisomerase IV (Staphylococcus aureus, UniProt P0C1S7+P0C1U9); test: Inhibition of Staphylococcus aureus topoisomerase 4 assessed as reduction in decatenation using kDNA as substrate incubated for 30 mins by fluorimetric assay; type: protein-complex assay
Sequence of Topoisomerase IV (P0C1U9 whole entry): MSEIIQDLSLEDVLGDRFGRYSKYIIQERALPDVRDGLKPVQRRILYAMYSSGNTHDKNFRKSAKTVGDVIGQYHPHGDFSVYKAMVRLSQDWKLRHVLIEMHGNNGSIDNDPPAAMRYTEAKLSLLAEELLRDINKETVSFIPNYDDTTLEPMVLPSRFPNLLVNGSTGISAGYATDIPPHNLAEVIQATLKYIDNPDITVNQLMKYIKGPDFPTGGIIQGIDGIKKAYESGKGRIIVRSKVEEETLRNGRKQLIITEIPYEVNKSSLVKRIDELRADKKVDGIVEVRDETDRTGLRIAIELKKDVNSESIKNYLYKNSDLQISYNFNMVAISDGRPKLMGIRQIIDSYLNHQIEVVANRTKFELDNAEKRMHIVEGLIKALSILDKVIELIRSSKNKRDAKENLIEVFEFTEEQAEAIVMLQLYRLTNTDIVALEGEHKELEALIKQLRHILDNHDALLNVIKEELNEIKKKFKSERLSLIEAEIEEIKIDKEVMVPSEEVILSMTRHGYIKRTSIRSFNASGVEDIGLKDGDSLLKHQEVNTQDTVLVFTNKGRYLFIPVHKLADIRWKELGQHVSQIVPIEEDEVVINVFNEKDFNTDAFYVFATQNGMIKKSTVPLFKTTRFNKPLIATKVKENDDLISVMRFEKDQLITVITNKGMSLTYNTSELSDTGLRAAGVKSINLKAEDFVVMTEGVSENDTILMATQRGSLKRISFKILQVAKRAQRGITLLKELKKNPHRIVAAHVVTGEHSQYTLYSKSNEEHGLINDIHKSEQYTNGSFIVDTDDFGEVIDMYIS
Sequence of Topoisomerase IV (P0C1S7 whole entry): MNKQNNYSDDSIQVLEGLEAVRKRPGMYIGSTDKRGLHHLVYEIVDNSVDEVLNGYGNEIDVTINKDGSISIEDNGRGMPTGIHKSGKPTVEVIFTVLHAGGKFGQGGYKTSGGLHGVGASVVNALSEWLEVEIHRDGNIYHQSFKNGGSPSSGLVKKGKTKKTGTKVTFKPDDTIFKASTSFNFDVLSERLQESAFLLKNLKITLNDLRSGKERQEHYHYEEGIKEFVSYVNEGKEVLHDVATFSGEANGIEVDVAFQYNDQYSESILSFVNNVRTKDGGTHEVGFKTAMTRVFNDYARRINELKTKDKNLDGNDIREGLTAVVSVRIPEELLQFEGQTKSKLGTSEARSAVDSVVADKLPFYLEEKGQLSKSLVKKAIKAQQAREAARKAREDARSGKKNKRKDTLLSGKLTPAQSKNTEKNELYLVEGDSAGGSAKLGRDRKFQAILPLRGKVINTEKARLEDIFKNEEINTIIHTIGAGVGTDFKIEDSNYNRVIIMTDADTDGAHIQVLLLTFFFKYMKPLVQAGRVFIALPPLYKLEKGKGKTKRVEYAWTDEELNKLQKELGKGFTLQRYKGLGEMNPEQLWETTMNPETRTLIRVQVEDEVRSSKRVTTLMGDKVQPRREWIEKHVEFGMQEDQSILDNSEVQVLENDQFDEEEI

[1] = Toxicity in Swiss albino mouse assessed as clonic convulsions at 0.6 mmol/Kg, iv administered as single dose observed for 6 hrs; type: organism-based; conditions: in vivo
Mus musculus = test: Effect on GABA protein expression in Swiss albino mouse assessed as decrease in GABA protein expression at 0.6 mmol/Kg, iv administered as single dose by western blot analysis; type: functional, organism-based

Row | SMILES | MIC (Staphylococcus aureus) | MIC (Escherichia coli) | IC50 (DNA gyrase) | IC50 (Topoisomerase IV) | Activity [1] | Activity (Mus musculus)
1 | O=C(O)c1cn(C2CC2)c2cc(N3CCNCC3)c(F)cc2c1=O [CIPROFLOXACIN] | 1.36 µM (≈ 0.45 µg/mL) | 0.255 µM (≈ 0.0845 µg/mL) | – | – | – | –
2 | CC(C(=O)Nc1ccc(S(=O)(=O)Nc2cnc3ccccc3n2)cc1)N1CCN(c2cc3c(cc2F)c(=O)c(C(=O)O)cn3C2CC2)CC1 (stereo unspecified) | 0.729 µM (≈ 0.5 µg/mL) | 1.94 µM (≈ 1.33 µg/mL) | 1.44 µM | 1.21 µM | – | –
3 | O=C(O)c1cn(C2CC2)c2cc(N3CCN(/N=N/c4ccc(S(=O)(=O)Nc5cncc(Cl)n5)cc4)CC3)c(F)cc2c1=O | 1.59 µM (≈ 1 µg/mL) | 1.33 µM (≈ 0.833 µg/mL) | 13 µM | 12.8 µM | – | –
4 | Cc1cc(NS(=O)(=O)c2ccc(NC(=O)C(C)N3CCN(c4cc5c(cc4F)c(=O)c(C(=O)O)cn5C4CC4)CC3)cc2)no1 (stereo unspecified) | 0.783 µM (≈ 0.5 µg/mL) | 1.04 µM (≈ 0.667 µg/mL) | 1.27 µM | 0.39 µM | Non-Toxic | Active
5 | O=C(CCN1CCN(c2cc3c(cc2F)c(=O)c(C(=O)O)cn3C2CC2)CC1)Nc1ccc(S(=O)(=O)Nc2cncc(Cl)n2)cc1 | 287 µM (≈ 192 µg/mL) | 287 µM (≈ 192 µg/mL) | 1.24 µM | 0.44 µM | – | –
6 | O=C(CN1CCN(c2cc3c(cc2F)c(=O)c(C(=O)O)cn3C2CC2)CC1)Nc1ccc(S(=O)(=O)Nc2cnc3ccccc3n2)cc1 | 1.99 µM (≈ 1.33 µg/mL) | 0.744 µM (≈ 0.5 µg/mL) | 0.55 µM | 0.35 µM | Non-Toxic | Active
7 | O=C(CN1CCN(c2cc3c(cc2F)c(=O)c(C(=O)O)cn3C2CC2)CC1)Nc1ccc(S(=O)(=O)Nc2cncc(Cl)n2)cc1 | 1.52 µM (≈ 1 µg/mL) | 2.54 µM (≈ 1.67 µg/mL) | 0.9 µM | 2.29 µM | – | –
8 | O=C(CCN1CCN(c2cc3c(cc2F)c(=O)c(C(=O)O)cn3C2CC2)CC1)Nc1ccc(S(=O)(=O)Nc2cnc3ccccc3n2)cc1 | 0.972 µM (≈ 0.667 µg/mL) | 0.608 µM (≈ 0.417 µg/mL) | 0.43 µM | 0.23 µM | Non-Toxic | Active
9 | O=C(O)c1cn(C2CC2)c2cc(N3CCN(/N=N/c4ccc(S(=O)(=O)Nc5cnc6ccccc6n5)cc4)CC3)c(F)cc2c1=O | 5.19 µM (≈ 3.33 µg/mL) | 0.389 µM (≈ 0.25 µg/mL) | 5.86 µM | 12.8 µM | – | –
10 | O=C(CCN1CCN(c2cc3c(cc2F)c(=O)c(C(=O)O)cn3C2CC2)CC1)Nc1ccc(S(=O)(=O)Nc2ncccn2)cc1 | 1.57 µM (≈ 1 µg/mL) | 2.62 µM (≈ 1.67 µg/mL) | 1.99 µM | 1.8 µM | – | –
11 | O=C(O)c1cn(C2CC2)c2cc(N3CCN(/N=N/c4ccc(S(=O)(=O)Nc5ncccn5)cc4)CC3)c(F)cc2c1=O | 0.422 µM (≈ 0.25 µg/mL) | 0.013 µM (≈ 0.0077 µg/mL) | 12.8 µM | 9.5 µM | – | –
12 | Cc1cc(NS(=O)(=O)c2ccc(NC(=O)CN3CCN(c4cc5c(cc4F)c(=O)c(C(=O)O)cn5C4CC4)CC3)cc2)no1 | 3.2 µM (≈ 2 µg/mL) | 7.47 µM (≈ 4.67 µg/mL) | 1.33 µM | 4.66 µM | – | –
13 | Cc1cc(NS(=O)(=O)c2ccc(/N=N/N3CCN(c4cc5c(cc4F)c(=O)c(C(=O)O)cn5C4CC4)CC3)cc2)no1 | 0.839 µM (≈ 0.5 µg/mL) | 1.12 µM (≈ 0.666 µg/mL) | 1.95 µM | 2.58 µM | – | –
14 | CC(C(=O)Nc1ccc(S(N)(=O)=O)cc1)N1CCN(c2cc3c(cc2F)c(=O)c(C(=O)O)cn3C2CC2)CC1 (stereo unspecified) | 1.5 µM (≈ 0.834 µg/mL) | 0.897 µM (≈ 0.5 µg/mL) | 5.65 µM | 6.66 µM | – | –
15 | NS(=O)(=O)c1ccc(/N=N/N2CCN(c3cc4c(cc3F)c(=O)c(C(=O)O)cn4C3CC3)CC2)cc1 | 0.324 µM (≈ 0.167 µg/mL) | 0.025 µM (≈ 0.0129 µg/mL) | 3.56 µM | 2.43 µM | – | –
16 | NS(=O)(=O)c1ccc(NC(=O)CN2CCN(c3cc4c(cc3F)c(=O)c(C(=O)O)cn4C3CC3)CC2)cc1 | 7.36 µM (≈ 4 µg/mL) | 12.3 µM (≈ 6.67 µg/mL) | 1.32 µM | 3.77 µM | – | –
17 | O=C(CN1CCN(c2cc3c(cc2F)c(=O)c(C(=O)O)cn3C2CC2)CC1)Nc1ccc(S(=O)(=O)Nc2ncccn2)cc1 | 1.61 µM (≈ 1 µg/mL) | 1.34 µM (≈ 0.834 µg/mL) | 2.87 µM | 2.08 µM | – | –
18 | NS(=O)(=O)c1ccc(NC(=O)CCN2CCN(c3cc4c(cc3F)c(=O)c(C(=O)O)cn4C3CC3)CC2)cc1 | 2.99 µM (≈ 1.67 µg/mL) | 0.897 µM (≈ 0.5 µg/mL) | 1.1 µM | 0.6 µM | – | –
19 | NC(N)=NS(=O)(=O)c1ccc(/N=N/N2CCN(c3cc4c(cc3F)c(=O)c(C(=O)O)cn4C3CC3)CC2)cc1 | 1.8 µM (≈ 1 µg/mL) | 3 µM (≈ 1.67 µg/mL) | 0.77 µM | 0.64 µM | Non-Toxic | Active
20 | Cc1cc(NS(=O)(=O)c2ccc(NC(=O)CCN3CCN(c4cc5c(cc4F)c(=O)c(C(=O)O)cn5C4CC4)CC3)cc2)no1 | 1.04 µM (≈ 0.667 µg/mL) | 5.22 µM (≈ 3.33 µg/mL) | 6.31 µM | 3.91 µM | – | –
